Experiments:
Type in all cases: in vivo, C57BL/6 mice
MCa32A cells = test: Tumor rejection model, MC38 murine colon adenocarcinoma cells expressing CEA (Example 2)
Protocol: (§1) Blood sampling was performed by tail bleeding.
MC32aCEA cells expressing CEA protein were obtained from Pr. W. Zimermann (LTI, Munich). These cells are derived from the MC38 murine colon adenocarcinoma (48).

[1] = test system: CD4, CD8, CD49d and B220 cells in the spleen and maxillary lymph nodes; test: Lymphocyte depletion in lymphoid organs, phenotyping of spleen and maxillary lymph nodes (Example 2, Table 2); conditions: 14 days after onset of treatment, ATG 20 mg/kg single ip, Fludarabine 100 mg/kg/day ip 6 days
Protocol: as §1
(§2) Blood, lymph node cells and splenocytes were processed according to previously described methods (28, 29) for numeration and flow cytometry assisted phenotyping. Blood lymphocytes were counted using Trypan blue.
The blood compartment represents only 1 to 2% on the total body lymphoid mass. The Inventors therefore monitored lymphocyte depletion by phenotyping for T and B cells, spleen and lymph nodes 14 days after onset of immunosuppression. Compared to controls (PBS and NRS) Fludarabine- and ATG-based immunosuppressive therapies induced modifications of lymphocyte proportion in lymphoid organs (Table 2).
Peripheral lymphoid organs were sampled 14 days after onset of immunosuppressive treatment administration. Values presented are the percentages of CD4, CD8, CD49d and B220 cells observed in the spleen and maxillary lymph nodes, and the absolute values of CD4, CD8, CD49d and B220 by reference to the number of lymphocytes contained in each organ.

[2] = test system: CD4, CD8 and B220 cells in the spleen and lymph nodes; test: Lymphocyte depletion in lymphoid organs, phenotyping of spleen and lymph nodes (Example 1, Table 1); conditions: 10 days after onset of immunosuppressive treatment; ATG 20 mg/kg single ip, fludarabine 200 mg/kg/day ip 6 days
Protocol: as §1
Blood, lymph node cells and splenocytes were processed according to previously described methods (28, 29) for numeration and flow cytometry assited phenotyping. Blood lymphocytes were counted using Türk blue.
The blood compartment represents only 1 to 2% on the total body lymphoid mass. Lymphocyte depletion by phenotyping for T and B cells, spleen and lymph nodes 10 days after onset of immunosuppression has been monitored. Similarly to the situation in the blood compartment, ATG- and fludarabine-based immunosuppressive therapies induced a depletion of the T lymphocyte pool in lymphoid organs (Table 1).
Peripheral lymphoid organs were sampled 10 days after onset of immunosuppressive treatment administration. Values presented are the percentages of CD4, CD8 and B220 cells observed in the spleen and lymph nodes.

[3] = test system: peripheral blood lymphocytes (CD4+, CD8+, CD49d+ and B220+); test: Peripheral blood lymphocyte depletion induced by immunosuppressive treatment (Example 2); conditions: after onset of treatment; Fludarabine 100 mg/kg/day ip for 6 days
Protocol: Kinetic of the number of lymphocytes (CD4+, CD8+, CD49d+ and B220+) in peripheral blood following i.p. injection of 100 mg/kg/day Fludarabine for 6 days or following a single i.p. injection of 20 mg/kg ATG. Controls are injected with PBS or with 20 mg/kg of normal rabbit serum (NRS)
as §1, §2
Mouse ATG were prepared by injecting a rabbit sc with 5×10^8 thymocytes sampled on 6-weeks old C57BL/6 mice. This immunization was boosted 14 days later with an iv injection of identical material. Seven days later the animal was bled and serum IgG were purified on immobilized protein G column (Pierce). Purity was controlled by SDS PAGE analysis and quantity was estimated by the Bradford method with known concentration rabbit IgG as standards. Rabbit ATG was used at a concentration of 20 mg/kg with a single injection. As a control, normal rabbit serum was used.
Fludarabine (Sigma) was used at a concentration of 100 mg/kg/day for 6 days. Monoclonal antibodies: anti-CD4-APC, anti-CD8-PerCP, anti-B220-FITC and anti-CD49d (Pan NK)-PE were obtained from BD Biosciences.

[4] = test system: CEA-specific IFN-γ producing CD8+ cells; test: γ-IFN ELISpot assay of CEA-specific CD8+ cells after immunization (Example 2)
Protocol: […] Seven days after last immunization, CEA-specific IFN-γ producing CD8+ cells were detected by ex vivo ELISpot assay using 1 μg/ml CEA pepscan. Data are expressed as the median numbers of γ-IFN spot forming colonies, SFC (n=3).
ATG- or Fludarabine-based immunosuppressive treatments were applied to animals 7 days prior to prime boost immunization with recombinant proteins. Immunizations performed iv with equimolar amounts of indicated recombinant proteins (50 μg for CyaAs, 19.2 μg for His-tag CEA) in presence of 10 μg CpG, were boosted id 7 days later with 10 μg of similar material (3.8 μg for His-tag CEA) and 2 μg of CpG. Seven days after last immunization, CEA-specific IFN-γ producing CD8+ cells were detected by ex vivo ELISpot assay using 1 μg/ml CEA pepscan. Data are expressed as the median numbers of γ-IFN spot forming colonies, SFC (n=2).
Multiscreen filtration plates (96 wells; Millipore, France) were coated with 4 μg/ml of rat anti-mouse gamma interferon (IFN-γ) antibody (clone R4-6A2; PharMingen, San Diego, Calif.), overnight at room temperature. Spleen cells from immunized mice were added to the wells and incubated for 20 h with or without CEA pepscan at 1 μg/ml. […] The number of γ-IFN producing cells was determined by counting the number of spot-forming colonies (SFC) in each well (C.T.L., Germany), and the results were expressed as number of SFC per 1×10^6 splenocytes (20).

Nc1nc(F)nc2c1ncn2[C@@H]1O[C@H](CO)[C@@H](O)[C@@H]1O [Fludarabine]
size of tumors relative to the other groups (smaller) (MCa32A cells; at the time of CyaA-based immunotherapy): 20 times
survival median of mock-treated animals (MCa32A cells; immunosuppressive treatment 3 days after tumor inoculation, no CEA immunization): 21 to 25 days
B220+ absolute value, Spleen [1]: 8 10^6 cells/ml
B220+ percentage, Spleen [1]: 42.4%
CD4+ absolute value, Spleen [1]: 3.8 10^6 cells/ml
CD4+ percentage, Spleen [1]: 20.4%
CD8+ absolute value, Spleen [1]: 2.5 10^6 cells/ml
CD8+ percentage, Spleen [1]: 13.4%
CD49d+ absolute value, Spleen [1]: 1.4 10^6 cells/ml
CD49d+ percentage, Spleen [1]: 7.5%
B220+ absolute value, Lymph nodes ([1]; maxillary lymph nodes): 0.3 10^6 cells/ml
B220+ percentage, Lymph nodes ([1]; maxillary lymph nodes): 30.2%
CD4+ absolute value, Lymph nodes ([1]; maxillary lymph nodes): 0.3 10^6 cells/ml
CD4+ percentage, Lymph nodes ([1]; maxillary lymph nodes): 31.3%
CD8+ absolute value, Lymph nodes ([1]; maxillary lymph nodes): 0.3 10^6 cells/ml
CD8+ percentage, Lymph nodes ([1]; maxillary lymph nodes): 35.3%
CD49d+ absolute value, Lymph nodes ([1]; maxillary lymph nodes): 0.03 10^6 cells/ml
CD49d+ percentage, Lymph nodes ([1]; maxillary lymph nodes): 3.8%
percentage of B220+ cells, Lymph nodes [2]: 32.4%
percentage of B220+ cells, Spleen [2]: 54.3%
percentage of CD4+ cells, Lymph nodes [2]: 37.8%
percentage of CD4+ cells, Spleen [2]: 21.9%
percentage of CD8+ cells, Lymph nodes [2]: 20.8%
percentage of CD8+ cells, Spleen [2]: 5.3%
time for T cell values to return to control groups [3]: ≤ 7 days

B1: His-Tag-CEA: histidine-tagged full length CEA protein, used as control, formulated with CpG (protein, UniProt P06731 1-702, looked up)
chain: MESPSAPPHRWCIPWQRLLLTASLLTFWNPPTTAKLTIESTPFNVAEGKEVLLLVHNLPQHLFGYSWYKGERVDGNRQIIGYVIGTQQATPGPAYSGREIIYPNASLLIQNIIQNDTGFYTLHVIKSDLVNEEATGQFRVYPELPKPSISSNNSKPVEDKDAVAFTCEPETQDATYLWWVNNQSLPVSPRLQLSNGNRTLTLFNVTRNDTASYKCETQNPVSARRSDSVILNVLYGPDAPTISPLNTSYRSGENLNLSCHAASNPPAQYSWFVNGTFQQSTQELFIPNITVNNSGSYTCQAHNSDTGLNRTTVTTITVYAEPPKPFITSNNSNPVEDEDAVALTCEPEIQNTTYLWWVNNQSLPVSPRLQLSNDNRTLTLLSVTRNDVGPYECGIQNELSVDHSDPVILNVLYGPDDPTISPSYTYYRPGVNLSLSCHAASNPPAQYSWLIDGNIQQHTQELFISNITEKNSGLYTCQANNSASGHSRTTVKTITVSAELPKPSISSNNSKPVEDKDAVAFTCEPEAQNTTYLWWVNGQSLPVSPRLQLSNGNRTLTLFNVTRNDARAYVCGIQNSVSANRSDPVTLDVLYGPDTPIISPPDSSYLSGANLNLSCHSASNPSPQYSWRINGIPQQHTQVLFIAKITPNNNGTYACFVSNLATGRNNSIVKSITVSASGTSPGLSAGATVGIMIGVLVGVALI
modifications: full-length His tag
notes: histidine-tagged full length CEA protein, used as control, formulated with CpG
CEA-specific cellular immune responses upon immunization after immunosuppressive treatment ([4]; compared with CyaA-CEAA3B3 + CpG, prime-boost with CpG): Lower CEA-specific cellular immune responses were detected
cellular immune response characterized by γ-IFN secretion ([4]; one single iv administration, with CpG adjuvant, no immunosuppression): neither CyaAΔ-CEAA3B3 nor His-tag-CEA protein formulated with an adjuvant such as CpG, were able to mount a cellular immune response

Source: patent US9486524B2, “Composition for eliciting a specific CTL response, comprising a lympho-ablative compound and a molecule that contains antigenic sequences and targets professional antigen presenting cells” (priority 2006, dated 2016)
